Assay results published in patent US20200369728A1, “PEPTIDOMIMETIC MACROCYCLES AND USES THEREOF” (Aileron Therapeutics, Inc., priority 2015, published 2020).
Bridge positions count the residues as written; N and C are the ends. Square brackets hold non-standard residues; d marks the D form. Peptide text beside a SMILES is read from it. Phe(3,4-F2) = N[C@@H](Cc1ccc(F)c(F)c1)C(=O)O; 2Nal = N[C@@H](Cc1ccc2ccccc2c1)C(=O)O; R8 = C=CCCCCCC[C@@](C)(N)C(=O)O; Cba = N[C@@H](CC1CCC1)C(=O)O; S5 = C=CCCC[C@](C)(N)C(=O)O; Nle = CCCC[C@H](N)C(=O)O

Experiments:
Caspase 3 = Caspase 3 detection assay in SJSA1 cells; format: cell-based; settings: SJSA1, 48 h, Caspase 3 activation over DMSO-treated cells
SJSA-1 cells = assay: Cell lysis by peptidomimetic macrocycles (LDH release); format: cell-based; settings: SJSA-1, 1 h
Procedure, shortened: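 SJSA-1 cells plated the day before, switched to RPMI with 1% FBS, then exposed 1 h at 37 °C to macrocycle at final 50 μM to 6.25 μM in 0.5% DMSO. LDH released into the supernatant was measured by kit. Controls: 0.5% DMSO (non-lytic), 10 μM melittin and 1% Triton X-100 (lytic).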

Compound | caspase 0.3 μM (Caspase 3) | caspase 3 μM (Caspase 3) | caspase 10 μM (Caspase 3) | caspase 30 μM (Caspase 3) | 6.25 μM % Lysed cells (1 h LDH) (SJSA-1 cells) [%] | 25 μM % Lysed cells (1 h LDH) (SJSA-1 cells) [%] | 50 μM % Lysed cells (1 h LDH) (SJSA-1 cells) [%] | caspase 1 μM (Caspase 3; 1 μM)
CC(=O)N[C@@H](CC(C)C)C(=O)N[C@H](C(=O)N[C@@H](Cc1ccccc1)C(=O)N[C@]1(C)CCCCCCC=CCCC[C@@](C)(C(=O)N[C@@H](C)C(=O)N[C@@H](C)C(=O)N[C@H](C(=O)N[C@H](C)C(N)=O)C(C)C)NC(=O)[C@H](CC(C)C)NC(=O)[C@H](CCC(N)=O)NC(=O)[C@H](C)NC(=O)[C@H](Cc2c[nH]c3ccccc23)NC(=O)[C@H](Cc2ccc(O)cc2)NC(=O)[C@H](CCC(=O)O)NC1=O)[C@@H](C)O (single isomer, unassigned) [compound 221] | 1 | 3 | 6 | 12 | 3 | 3 | 11 | –
CC(=O)N[C@@H](CC(C)C)C(=O)N[C@H](C(=O)N[C@@H](Cc1ccccc1)C(=O)N[C@]1(C)CCCCCCC=CCCC[C@@](C)(C(=O)N[C@@H](CO)C(=O)N[C@@H](C)C(=O)N[C@@H](C)C(N)=O)NC(=O)[C@H](CC2CCC2)NC(=O)[C@H](CCC(N)=O)NC(=O)[C@H](C)NC(=O)[C@H](Cc2c[nH]c3ccccc23)NC(=O)[C@H](Cc2ccc(O)cc2)NC(=O)[C@H](CCC(=O)O)NC1=O)[C@@H](C)O (single isomer, unassigned) [compound 153] | 2 | 10 | 15 | 20 | 4 | 2 | 3 | –
CC[C@H](C)[C@H](NC(=O)[C@H](C)NC(=O)[C@H](C)NC(=O)[C@]1(C)CCCC=CCCCCCC[C@@](C)(NC(=O)[C@H](Cc2ccccc2)NC(=O)[C@@H](NC(=O)[C@H](CC(C)C)NC(C)=O)[C@@H](C)O)C(=O)N[C@@H](CCC(=O)O)C(=O)N[C@@H](Cc2c[nH]cn2)C(=O)N[C@@H](Cc2c[nH]c3ccccc23)C(=O)N[C@@H](C)C(=O)N[C@@H](CCC(N)=O)C(=O)N[C@@H](CC(C)C)C(=O)N1)C(=O)N[C@H](C)C(N)=O (single isomer, unassigned) [compound 223] | 1 | 1 | 5 | 18 | −2 | −4 | −1 | –
CC(=O)N[C@@H](CC(C)C)C(=O)N[C@H](C(=O)N[C@@H](Cc1ccccc1)C(=O)N[C@]1(C)CCCCCCC=CCCC[C@@](C)(C(=O)N[C@@H](CO)C(=O)N[C@H](C(=O)N[C@@H](CO)C(N)=O)C(C)C)NC(=O)[C@H](CC(C)C)NC(=O)[C@H](CCC(N)=O)NC(=O)[C@H](C)NC(=O)[C@H](Cc2c[nH]c3ccccc23)NC(=O)[C@H](Cc2ccc(O)cc2)NC(=O)[C@H](C(C)C)NC1=O)[C@@H](C)O (single isomer, unassigned) [compound 142] | 1 | 2 | 15 | 20 | 1 | 1 | 3 | –
CC(=O)N[C@@H](CC(C)C)C(=O)N[C@H](C(=O)N[C@@H](Cc1ccccc1)C(=O)N[C@]1(C)CCCCCCC=CCCC[C@@](C)(C(=O)N[C@@H](CO)C(=O)N[C@@H](C)C(=O)N[C@@H](C)C(N)=O)NC(=O)[C@H](CC2CCC2)NC(=O)[C@H](CCC(N)=O)NC(=O)[C@H](C)NC(=O)[C@H](Cc2ccc3ccccc3c2)NC(=O)[C@H](Cc2ccc(O)cc2)NC(=O)[C@H](CCC(=O)O)NC1=O)[C@@H](C)O [compound 254] (Ac-LTF[R8]EY[2Nal]AQ[Cba][S5]SAA-NH2; staple 4-11) | 1 | 7 | 14 | 22 | 11 | 60 | 75 | 3
CC(=O)N[C@@H](CC(C)C)C(=O)N[C@H](C(=O)N[C@@H](Cc1ccccc1)C(=O)N[C@]1(C)CCCCCCC=CCCC[C@@](C)(C(=O)N[C@@H](CO)C(=O)N[C@@H](C)C(=O)N[C@@H](C)C(N)=O)NC(=O)[C@H](CC(C)C)NC(=O)[C@H](C)NC(=O)[C@H](C)NC(=O)[C@H](Cc2c[nH]c3ccccc23)NC(=O)[C@H](Cc2c[nH]cn2)NC(=O)[C@H](C)NC1=O)[C@@H](C)O [compound 197] (Ac-LTF[R8]AHWAAL[S5]SAA-NH2; staple 4-11) | 1 | 1 | 10 | 20 | 1 | −1 | −2 | –
CCCC[C@H](NC(=O)[C@H](C)NC(=O)[C@H](C)NC(=O)[C@]1(C)CCCC=CCCCCCC[C@@](C)(NC(=O)[C@H](Cc2ccccc2)NC(=O)[C@@H](NC(=O)[C@H](CCC(=O)O)NC(C)=O)[C@@H](C)O)C(=O)N[C@@H](C)C(=O)N[C@@H](Cc2ccc(O)cc2)C(=O)N[C@@H](Cc2c[nH]c3ccccc23)C(=O)N[C@@H](C)C(=O)N[C@@H](CCC(N)=O)C(=O)N[C@@H](CC2CCC2)C(=O)N1)C(=O)N[C@@H](C)C(N)=O [compound 237] (Ac-ETF[R8]AYWAQ[Cba][S5]AA[Nle]A-NH2; staple 4-11) | 1 | 5 | 9 | 15 | 0 | 7 | 55 | –
CCCC[C@H](NC(=O)[C@H](C)NC(=O)[C@H](CO)NC(=O)[C@]1(C)CCCC=CCCCCCC[C@@](C)(NC(=O)[C@H](Cc2ccc(F)c(F)c2)NC(=O)[C@@H](NC(=O)[C@H](CC(C)C)NC(C)=O)[C@@H](C)O)C(=O)N[C@@H](CCC(=O)O)C(=O)N[C@@H](Cc2ccc(O)cc2)C(=O)N[C@@H](Cc2c[nH]c3ccccc23)C(=O)N[C@@H](C)C(=O)N[C@@H](CCC(N)=O)C(=O)N[C@@H](CC2CCC2)C(=O)N1)C(=O)N[C@@H](C)C(N)=O [compound 243] (Ac-LT[Phe(3,4-F2)][R8]EYWAQ[Cba][S5]SA[Nle]A-NH2; staple 4-11) | 1 | 2 | 5 | 23 | 4 | 39 | 64 | –
CC(=O)N[C@@H](CC(C)C)C(=O)N[C@H](C(=O)N[C@@H](Cc1ccccc1)C(=O)N[C@]1(C)CCCCCCC=CCCC[C@@](C)(C(=O)N[C@@H](C)C(=O)N[C@@H](Cc2c[nH]cn2)C(=O)N[C@@H](Cc2ccccc2)C(=O)N[C@@H](C)C(N)=O)NC(=O)[C@H](CC(C)C)NC(=O)[C@H](CCC(N)=O)NC(=O)[C@H](C)NC(=O)[C@H](Cc2c[nH]c3ccccc23)NC(=O)[C@H](Cc2c[nH]cn2)NC(=O)[C@H](C)NC1=O)[C@@H](C)O [compound 183] (Ac-LTF[R8]AHWAQL[S5]AHFA-NH2; staple 4-11) | 1 | 1 | 4 | 8 | 2 | 0 | 3 | –
CC(=O)N[C@@H](CC(C)C)C(=O)N[C@H](C(=O)N[C@@H](Cc1ccccc1)C(=O)N[C@]1(C)CCCCCCC=CCCC[C@@](C)(C(=O)N[C@@H](CO)C(=O)N[C@@H](C)C(=O)N[C@@H](CO)C(N)=O)NC(=O)[C@H](CC(C)C)NC(=O)[C@H](CCC(N)=O)NC(=O)[C@H](C)NC(=O)[C@H](Cc2c[nH]c3ccccc23)NC(=O)[C@H](Cc2ccc(O)cc2)NC(=O)[C@H](C(C)C)NC1=O)[C@@H](C)O (single isomer, unassigned) [compound 144] | 1 | 4 | 10 | 16 | 1 | −1 | 2 | –
CC(=O)N[C@@H](CC(C)C)C(=O)N[C@H](C(=O)N[C@@H](Cc1ccccc1)C(=O)N[C@]1(C)CCCCCCC=CCCC[C@@](C)(C(=O)N[C@@H](CO)C(=O)N[C@H](C(=O)N[C@@H](C)C(N)=O)C(C)C)NC(=O)[C@H](CC(C)C)NC(=O)[C@H](CCC(N)=O)NC(=O)[C@H](C)NC(=O)[C@H](Cc2c[nH]c3ccccc23)NC(=O)[C@H](Cc2ccc(O)cc2)NC(=O)[C@H](C(C)C)NC1=O)[C@@H](C)O (single isomer, unassigned) [compound 139] | 1 | 2 | 9 | 18 | −2 | −1 | −1 | –
CC[C@H](C)[C@H](NC(=O)[C@H](C)NC(=O)[C@H](C)NC(=O)[C@]1(C)CCCC=CCCCCCC[C@@](C)(NC(=O)[C@H](Cc2ccccc2)NC(=O)[C@@H](NC(=O)[C@H](CC(C)C)NC(C)=O)[C@@H](C)O)C(=O)N[C@@H](C)C(=O)N[C@@H](Cc2ccc(O)cc2)C(=O)N[C@@H](Cc2c[nH]c3ccccc23)C(=O)N[C@@H](C)C(=O)N[C@@H](C)C(=O)N[C@@H](CC(C)C)C(=O)N1)C(=O)N[C@@H](C(N)=O)C(C)C (single isomer, unassigned) [compound 77] | 1 | 2 | 19 | 23 | −2 | 1 | −1 | –
